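Growth conditions: 96-well plates. Treatment: test compound, 48 hours, 5 concentrations. Analysis: linear interpolation between bracketing concentrations; unreached endpoints set to highest concentration. TGI is the concentration that stops growth completely.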

This is an account of results in PubChem BioAssay (NCI).

Among the test systems are HT29 colon; PC-3 prostate; SF-268 CNS; TK-10 renal; COLO 205 colon; RPMI-8226 leukemia; T-47D breast; MALME-3M melanoma; NCI/ADR-RES ovarian; HS 578T breast; HOP-62 NSCLC.
Experiment in all cases: NCI anticancer screen, dose series, 48 h

As to `O=C1NC(NNc2ccccc2)=N/C1=C\c1ccco1`, the TGI in the experiment on HT29 colon was 52.3 µM; in the experiment on PC-3 prostate, 71.5 µM; in the experiment with SF-268 CNS, 75.2 µM; in the experiment on TK-10 renal, 36.4 µM; in the experiment on COLO 205 colon, 25.1 µM; in the experiment on RPMI-8226 leukemia, 66 µM. In addition, the TGI in the experiment on T-47D breast is 44.9 µM; in the experiment on MALME-3M melanoma, 81.6 µM; in the experiment with NCI/ADR-RES ovarian it was more than 100 µM; in the experiment on HS 578T breast it was 74.5 µM; in the experiment with HOP-62 NSCLC, more than 100 µM.
For `CC(=O)c1ccc(Nc2nc3ccccc3c3occc23)cc1`, the TGI in the experiment on HT29 colon is 17.3 µM; in the experiment on PC-3 prostate, more than 100 µM; in the experiment on SF-268 CNS it was 75.7 µM; in the experiment with TK-10 renal it was 35.8 µM; in the experiment on COLO 205 colon, 27.6 µM; in the experiment with RPMI-8226 leukemia it was 29.6 µM. The TGI came to 29.9 µM in the experiment on T-47D breast; 63.4 µM in the experiment on MALME-3M melanoma; 58 µM in the experiment on NCI/ADR-RES ovarian; 54.1 µM in the experiment with HS 578T breast; 36.2 µM with HOP-62 NSCLC.
On to `COc1cc2c(cc1OC)-c1cc3cc(OC)c(OC)cc3c(C)[n+]1CC2` (tested in a mixture with another compound), for which the TGI in the experiment on HT29 colon, with PC-3 prostate, in the experiment with SF-268 CNS, in the experiment with TK-10 renal, in the experiment on COLO 205 colon and in the experiment on RPMI-8226 leukemia was more than 100 µM throughout. Also, the TGI with T-47D breast is 25.2 µM; with MALME-3M melanoma it was more than 100 µM; with NCI/ADR-RES ovarian it was more than 100 µM; in the experiment on HS 578T breast, more than 100 µM; in the experiment with HOP-62 NSCLC, more than 100 µM.
As for `CCOC(=O)NC(C(F)(F)F)(C(F)(F)F)P(=O)(OCC)OCC`, the TGI in the experiment with HT29 colon is more than 100 µM; in the experiment on PC-3 prostate it was more than 100 µM; in the experiment on SF-268 CNS, more than 100 µM; with TK-10 renal, more than 100 µM; with COLO 205 colon, more than 100 µM; in the experiment with RPMI-8226 leukemia, 87.4 µM. The TGI in the experiment with T-47D breast, with MALME-3M melanoma, with NCI/ADR-RES ovarian, in the experiment with HS 578T breast and with HOP-62 NSCLC was more than 100 µM throughout.
With `Cc1ccc(C(CCO)CCO)nc1`, the TGI with HT29 colon, in the experiment on PC-3 prostate, in the experiment with SF-268 CNS, in the experiment on TK-10 renal, in the experiment on COLO 205 colon and in the experiment with RPMI-8226 leukemia was more than 100 µM throughout. The TGI with T-47D breast, in the experiment with MALME-3M melanoma, with NCI/ADR-RES ovarian, with HS 578T breast and in the experiment with HOP-62 NSCLC was more than 100 µM throughout.
For `C[N+]1(C)C/C(=C\C=C\c2ccccc2)C(=O)/C(=C/C=C/c2ccccc2)C1`, the TGI with HT29 colon is 26.6 µM; with PC-3 prostate it was 98.7 µM; with SF-268 CNS it was 43.7 µM; in the experiment on TK-10 renal, more than 67.1 µM; with COLO 205 colon, 11.8 µM; in the experiment on RPMI-8226 leukemia, 10.9 µM. Besides, the TGI was 47.4 µM in the experiment with T-47D breast; 40.4 µM with MALME-3M melanoma; more than 100 µM in the experiment on NCI/ADR-RES ovarian; more than 61.4 µM with HS 578T breast; 46.3 µM in the experiment with HOP-62 NSCLC.
As to `O=C(NCCCN1CCN(CCCNC(=O)c2cc(-c3ccccc3)nc3ccccc23)CC1)c1cc(-c2ccccc2)nc2ccccc12`, the TGI with HT29 colon is more than 39.7 µM; in the experiment with PC-3 prostate, 26 µM; in the experiment with SF-268 CNS it was more than 60.2 µM; with TK-10 renal, 60.2 µM; in the experiment with COLO 205 colon, more than 71.3 µM; with RPMI-8226 leukemia, more than 57.8 µM. For the same compound, the TGI is 33.9 µM in the experiment with T-47D breast; 3.21 µM with MALME-3M melanoma; more than 72.3 µM in the experiment with NCI/ADR-RES ovarian; 37.1 µM in the experiment with HS 578T breast; 41.3 µM in the experiment on HOP-62 NSCLC.
On to `Cn1c2ccccc2c(=NNc2ccc(S(=O)(=O)N=C(N)N)cc2)c2ccccc21`, for which the TGI with HT29 colon amounted to 14.5 µM; in the experiment with PC-3 prostate, 21.3 µM; in the experiment with SF-268 CNS it was 22.1 µM; in the experiment on TK-10 renal, 26.5 µM; in the experiment on COLO 205 colon, 18.7 µM; in the experiment on RPMI-8226 leukemia, 43.4 µM. Also, the TGI stood at 35.6 µM in the experiment on T-47D breast; 20.7 µM in the experiment on MALME-3M melanoma; 71.1 µM in the experiment on NCI/ADR-RES ovarian; 49.7 µM in the experiment on HS 578T breast; 28.2 µM in the experiment on HOP-62 NSCLC.
Turning to `CC(C)(C)c1cc(OCc2n[nH]c(=S)n2N)c(Cl)cc1OCc1n[nH]c(=S)n1N`, the TGI in the experiment with HT29 colon, with PC-3 prostate, in the experiment with SF-268 CNS, in the experiment with TK-10 renal, with COLO 205 colon and in the experiment with RPMI-8226 leukemia was more than 100 µM in each case. In addition, the TGI with T-47D breast, with MALME-3M melanoma, in the experiment on NCI/ADR-RES ovarian, in the experiment on HS 578T breast and in the experiment on HOP-62 NSCLC was more than 100 µM in each case.
On to `CCOC(=O)c1c(Br)c(-c2ccc([N+](=O)[O-])cc2)c(Br)n1C`, for which the TGI with HT29 colon, in the experiment on PC-3 prostate, in the experiment with SF-268 CNS, in the experiment on TK-10 renal, with COLO 205 colon and in the experiment with RPMI-8226 leukemia was more than 10 µM in each case. Also, the TGI with T-47D breast, in the experiment with MALME-3M melanoma, in the experiment with NCI/ADR-RES ovarian, with HS 578T breast and in the experiment with HOP-62 NSCLC was more than 10 µM in each case.
In the case of `CC(=O)c1sc2c(c1OC(=O)c1ccccc1)c(=O)n(-c1ccccc1)c(=S)n2-c1ccccc1`, the TGI in the experiment with HT29 colon was 12.9 µM; in the experiment with PC-3 prostate, 14.9 µM; in the experiment with SF-268 CNS, more than 63 µM; in the experiment with TK-10 renal, more than 86.9 µM; in the experiment on COLO 205 colon, 30.1 µM; in the experiment with RPMI-8226 leukemia, 7.32 µM. In addition, the TGI is more than 50.3 µM with T-47D breast; 5.92 µM in the experiment with MALME-3M melanoma; 28.7 µM with NCI/ADR-RES ovarian; more than 30.7 µM in the experiment on HS 578T breast; 45.9 µM in the experiment on HOP-62 NSCLC.
In the case of `O=c1[nH]nc(-c2ccccc2)n1-n1cccc1`, the TGI in the experiment on HT29 colon, with PC-3 prostate, in the experiment with SF-268 CNS, in the experiment with TK-10 renal, in the experiment on COLO 205 colon and in the experiment with RPMI-8226 leukemia was more than 100 µM throughout. Also, the TGI with T-47D breast, in the experiment with MALME-3M melanoma, in the experiment on NCI/ADR-RES ovarian, in the experiment with HS 578T breast and with HOP-62 NSCLC was more than 100 µM each time.
